Results from PubChem BioAssay (NCI).
“And” between values parts separate entries of the source, which are not always exact repeats. Identical values can stand only once.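 Five concentrations, 48 hours, 96-well plates. GI50 = concentration required for 50% inhibition of growth. TGI is the concentration that stops growth completely.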

Key:
Assay in all cases: growth of human tumour cells (NCI), 48 h
HS 578T breast = system: HS 578T breast
HT29 colon = system: HT29 colon
K-562 leukemia = system: K-562 leukemia
MOLT-4 leukemia = system: MOLT-4 leukemia
OVCAR-8 ovarian = system: OVCAR-8 ovarian
SF-539 CNS = system: SF-539 CNS
SK-MEL-2 melanoma = system: SK-MEL-2 melanoma
SK-MEL-28 melanoma = system: SK-MEL-28 melanoma
SW-620 colon = system: SW-620 colon
UACC-62 melanoma = system: UACC-62 melanoma

| SMILES | GI50 (HS 578T breast) | TGI (HS 578T breast) [µM] | GI50 (HT29 colon) [µM] | TGI (HT29 colon) | GI50 (K-562 leukemia) | TGI (K-562 leukemia) [µM] | GI50 (MOLT-4 leukemia) [µM] | TGI (MOLT-4 leukemia) [µM] | GI50 (OVCAR-8 ovarian) [µM] | TGI (OVCAR-8 ovarian) [µM] | GI50 (SF-539 CNS) [µM] | TGI (SF-539 CNS) [µM] | GI50 (SK-MEL-2 melanoma) [µM] | TGI (SK-MEL-2 melanoma) [µM] | GI50 (SK-MEL-28 melanoma) [µM] | TGI (SK-MEL-28 melanoma) [µM] | GI50 (SW-620 colon) [µM] | TGI (SW-620 colon) [µM] | GI50 (UACC-62 melanoma) [µM] | TGI (UACC-62 melanoma) [µM] |
| --- | --- | --- | --- | --- | --- | --- | --- | --- | --- | --- | --- | --- | --- | --- | --- | --- | --- | --- | --- | --- |
| N#CC1=C(N)NC(=S)NC12Nc1ccccc1O2 (stereo not drawn) | 19.1 µM | 60.2 | 31.2 | 90.8 µM | 13700 nM | > 100 | 3.72 | > 100 | 46.2 | > 100 | 45.8 | > 100 | 20.9 | 53.4 | 45.7 | > 100 | 47.6 | > 100 | 20.8 | 70 |
| OC(C1=C/C(=C\c2ccncc2)c2ccccc21)c1ccncc1 (stereo not drawn) | – | > 54.1 | – | 32.4 µM | – | 28.1 | – | 23.9 | – | > 100 | – | 32 | – | 33.8 | – | 34.6 | – | > 94.3 | – | 24 |
| COc1ccc(/C=C\c2cc(OC)c(OC)c(OC)c2)cc1OC(=O)C(N)CCC(=O)O (stereo not drawn) | 0.000788 µM and 0.00046 µM | – | – | > 37.9 µM and 46.2 µM | 0.311 nM and 0.0702 nM | – | 0.00244 | – | 0.000112 | – | 0.000814 | 0.000166 | 7.35e-05 | > 100 | – | > 59 | 0.000594 | > 100 | 0.000597 | > 100 |
| O=[N+]([O-])c1ccc(-c2nc(N(CCO)CCO)c3ccccc3n2)o1 | 0.346 µM | 1.99 | 0.184 | 3.07 µM | 337 nM | > 20.6 | 0.508 | > 38.9 | 0.262 | 2.88 | 0.272 | 1.24 | 0.158 | 0.361 | 0.877 | 2.41 | 0.265 | 2.55 | 0.196 | 0.477 |
| C=C1CC[C@@]2(C#N)[C@H]3[C@H](CC[C@@H]2C)[C@@H](C)C[C@@H](CC(C)(C)C#N)[C@H]13 | 0.637 µM | 55 | 0.469 | 16.1 µM | 460 nM | > 100 | 3.02 | 72.1 | 0.785 | 33.7 | 0.609 | 17.5 | 6.67 | 40.2 | 2.63 | 44.2 | 4.65 | 22.1 | 2.45 | 16.7 |
| COc1c(C)c2c(c(O)c1C/C=C(\C)CCC(=O)OCCN1CCOCC1)C(=O)OC2 | 7 µM | > 100 | 0.552 | > 100 µM | 151 nM | > 100 | 0.302 | > 100 | 0.464 | > 100 | 0.375 | > 100 | 33.6 | > 100 | 0.236 | > 100 | 0.142 | > 100 | 0.354 | > 100 |
| Fc1ccc(Oc2nccc(-c3c(-c4ccc(F)cc4)ncn3C3CCNCC3)n2)cc1 | > 24 µM | > 25 | 14.7 | > 25 µM | > 25000 nM | > 25 | > 25 | > 25 | > 25 | > 25 | > 25 | > 25 | > 25 | > 25 | > 25 | > 25 | > 25 | > 25 | > 20.8 | > 25 |
| COc1ccc(C2=NN(C(=O)COc3ccc(Cl)cc3)C(O)(c3cc(F)c(Cl)cc3Cl)C2)cc1OC (stereo not drawn) | 4.5 µM | 13.4 | 1.51 | 3.24 µM | 1550 nM | 15.2 | 1.47 | > 20.6 | 5.7 | 14.1 | 1.81 | 3.55 | 1.11 | 3.24 | 1.85 | 3.5 | 0.869 | 2.58 | 5.6 | 18.7 |
| N=C1c2nc3n(c2C(=O)c2nc4n(c21)CCCC4)CCCC3 | 2.18 µM | 6.68 | 2.56 | 5.51 µM | 19800 nM | > 100 | 47.2 | > 100 | 32.8 | > 100 | 2.42 | 5.2 | 23.4 | > 65 | 1.84 | 3.7 | 3.8 | 24.4 | 0.784 | 2.04 |
| CCN(CC)CCOc1ccc(Nc2ncc3cc(-c4ccc(O)cc4)c(=O)n(C)c3n2)cc1 | 0.274 µM | 19.8 | 0.379 | 2.79 µM | 39 nM | – | 0.2 | 21.8 | 3.72 | 15.2 | 0.629 | 11.6 | 18.9 | 39.5 | 10.6 | 27.6 | 2.01 | 4.01 | 17.5 | 41 |
| CC1(C)OC[C@@H]([C@@]2(CO[Si](C)(C)C(C)(C)C)CC=CC(=O)O2)O1 | 30.4 µM | 89.4 | 34.5 | > 100 µM | 26700 nM | > 100 | 23.7 | > 100 | 33.9 | > 100 | 20.6 | 42.4 | 40.4 | > 100 | 21.8 | 48.9 | 28.3 | 69.8 | 19 | 44.6 |
| NCCCC(=O)Nc1ccncc1 | > 100 µM | > 100 | > 100 | > 100 µM | > 100000 nM | > 100 | > 100 | > 100 | > 100 | > 100 | > 100 | > 100 | > 100 | > 100 | > 100 | > 100 | > 100 | > 100 | > 100 | > 100 |
